# Experiments:
# [1] = biological target: T1, HflX (wild-type) (Escherichia coli, UniProt P25519); test: stopped-flow light scattering of […] ribosome splitting; assay type: biochemical; settings: 1 uM HflX, 125 uM nucleotide, 0.15 uM 70S ribosomes, 5 mM Mg2+, 20 °C; compared with apo HflX; indirect functional read-out
# T1 construct: full length, N-terminal His6-tag, pET28a
# [2] = biological target: T2, HflX ΔL372 (Escherichia coli, UniProt P25519); test: [γ-32P]GTP hydrolysis, phosphate release, multiple turnover; assay type: biochemical; settings: ribosome-stimulated GTPase; 1 uM HflX, 125 uM GTP, 1 uM ribosomes per methods; labelled compound
# T2 construct: C-terminal truncation: codon Leu372 (elsewhere printed Lys372) replaced by amber stop; N-terminal His6-tag, pET28a
# T2 sequence (P25519 1-371): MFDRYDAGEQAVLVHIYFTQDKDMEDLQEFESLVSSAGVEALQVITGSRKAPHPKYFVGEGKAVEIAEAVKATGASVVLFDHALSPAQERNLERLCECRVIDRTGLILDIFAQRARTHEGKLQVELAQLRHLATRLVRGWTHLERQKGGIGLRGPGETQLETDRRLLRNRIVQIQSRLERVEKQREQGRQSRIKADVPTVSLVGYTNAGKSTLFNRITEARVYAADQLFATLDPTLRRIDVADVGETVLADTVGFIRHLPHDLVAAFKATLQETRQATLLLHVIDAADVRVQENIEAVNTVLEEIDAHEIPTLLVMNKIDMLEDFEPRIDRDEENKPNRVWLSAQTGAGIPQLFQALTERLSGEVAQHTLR
# T1 sequence (P25519 whole entry): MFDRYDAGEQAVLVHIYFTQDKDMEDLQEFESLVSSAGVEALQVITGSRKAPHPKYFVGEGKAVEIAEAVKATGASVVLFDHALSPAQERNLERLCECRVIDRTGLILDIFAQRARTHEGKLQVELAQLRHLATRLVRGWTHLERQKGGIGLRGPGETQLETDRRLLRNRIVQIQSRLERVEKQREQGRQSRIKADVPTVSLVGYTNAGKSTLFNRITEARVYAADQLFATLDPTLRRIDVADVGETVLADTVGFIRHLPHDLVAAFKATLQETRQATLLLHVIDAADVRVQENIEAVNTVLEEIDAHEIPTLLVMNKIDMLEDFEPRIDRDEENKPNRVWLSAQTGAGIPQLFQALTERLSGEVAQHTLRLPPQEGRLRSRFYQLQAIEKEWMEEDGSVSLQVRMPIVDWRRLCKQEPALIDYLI
structure (smiles),measurement,setting,value
Nc1nc2c(ncn2[C@@H]2O[C@H](COP(=O)(O)OP(=O)(O)NP(=O)(O)O)[C@@H](O)[C@H]2O)c(=O)[nH]1 [GDPNP],stopped-flow light scattering of 70S ribosome splitting,[1],HflX•GDPNP dissociated ribosomes to a greater extent than HflX•GDP
Nc1nc2c(ncn2[C@@H]2O[C@H](COP(=O)(O)OP(=O)(O)OP(=O)(O)O)[C@@H](O)[C@H]2O)c(=O)[nH]1 [GTP],"[γ-32P]GTP hydrolysis, phosphate release, multiple turnover",[2],we tested the ΔL372 truncation variant for GTP hydrolysis finding that it is still active

# Reference: article PMC4770234, “The conserved GTPase HflX is a ribosome splitting factor that binds to the E-site of the bacterial ribosome” (Nucleic Acids Research, 2016)
